# Like-named read-outs stand apart in the source and are kept apart here.
# Legend:
# [1] = target: Mouse Tail Artery; assay: Antagonism of UK 14,304-induced vasoconstriction in isolated pressurised distal mouse tail artery; assay type: cell-based; conditions: for Kd: versus UK 14,304, distal tail artery; for effect on vasoconstrictor response to UK 14,304: cold (28° C.), ARC 0239 50 nM, MK912 3×10^−10M; for effect on vasoconstrictor response to UK 14,304 / effect on vasoconstriction to the α2-AR agonist UK 14,304: BRL 44408 100 and 1000 nM; for effect on vasoconstriction to the α2-AR agonist UK 14,304: warm temperatures (37° C.), ARC 239 50 nM, MK 912 0.3 nM; for −log KD: n=4
# From the text: Male mice (C57BL6) were euthanized by CO2 asphyxiation. Proximal and/or distal segments of tail artery were then rapidly removed and placed in cold Krebs-Ringer bicarbonate solution (in mM): 118.3 NaCl, 4.7 KCl, 1.2 MgSO4, 1.2 KH2PO4, 2.5 CaCl2, 25.0 NaHCO3, 11. glucose (control solution). The small arteries were cannulated at both ends with glass micropipettes, secured using 12-0 nylon monofilament suture and placed in a microvascuiar chamber (Living Systems, Burlington, Vt.). The arteries were maintained at a constant transmural pressure of 60 mmHg in the absence of flow. The chamber was superfused with control solution and maintained at 37° C., pH 7.4, and gassed with 16% O2-5% CO2-balance N2. The chamber was placed on the stage of an inverted microscope (X20, Nikon TMS-F, Japan) connected to a video camera (Panasonic, CCTV camera, Japan). The vessel image was projected onto a video monitor and the internal diameter continuously determined by a video dimension analyzer (Living Systems Instrumentation, Burlington Vt.) and monitored using a BIOPAC (Santa Barbara, Calif.) data acquisition system (Gateway Dimensions Pentium Computer).
# Small arteries were allowed to equilibrate for 30-40 min at a transmural pressure (PTM) of 60 mmHg before addition of α1 and α2-AR agonists and antagonists. Concentration-effect curves to the selective α1-AR agonist, phenylephrine, or the selective α2-AR agonist, UK 14,304 (brimonidine, 5-bromo-N-(4,5-dihydro-1H-imidazol-2-yl)-6-quinoxalinamine) were generated by increasing the concentration of the agonists in half-log increments, once the constriction to the previous concentration had stabilized. Following completion of the concentration-effect curve, the influence of the agonists was terminated by repeatedly exchanging the buffer solution and allowing the artery to return to its stable baseline level.
# To evaluate the effect of selective α2-AR antagonists on vasoconstriction, concentration-effect curves to UK 14,304 were determined under control conditions and in the presence of the selective α2A-AR antagonist, BRL 44408 (100 and 1000 nM), the selective α2B-AR antagonist ARC 0239 (50 nM) or the selective α2C-AR antagonist MK 912 (0.3 nM) (Table 1). When these receptor antagonists were used, the preparations were incubated for 30 min with the drugs prior to, and also during, exposure of the arteries to the agonists. When analyzing the influence of cold on α-AR responsiveness, the temperature of the superfusate was decreased to 28° C. for 30 min prior to commencing a concentration effect curve to the constrictor agonists. This provides sufficient time for the effect of cold on adrenergic reactivity to stabilize.
# Vasomotor responses were expressed as a percentage change in internal diameter (ID) prior to administrating the agent. Because of the phasic behavior of the vasomotion in distal. tail arteries, the signal was electronically averaged (BIOPAC software, smoothing factor of 2000) in order to obtain diameter measurements. Functional data is expressed as means±SEM for n number of experiments, where n equals the number of animals from which blood vessels were studied. Antagonist dissociation constants (KD) were determined either from Arunlakshana and Schild plots or according to the formula: KD=[Ant]/(CR-1), where [Ant] is the concentration of antagonist, and CR the ratio of agonist-concentrations producing equal responses in the presence and absence of the antagonist. […] Statistical evaluation of the data was performed by Student's t-test for either paired or unpaired observations. When more than two means were compared, analysis of variance was used. If a significant F value was found, Scheffe's test for multiple comparisons was employed to identify differences among groups. Values were considered to be statistically different when P was less than 0.05.
# [2] = target: T1, α-2A (Homo sapiens, UniProt P08913); conditions: cited from earlier work
# T1 sequence (P08913 1-465): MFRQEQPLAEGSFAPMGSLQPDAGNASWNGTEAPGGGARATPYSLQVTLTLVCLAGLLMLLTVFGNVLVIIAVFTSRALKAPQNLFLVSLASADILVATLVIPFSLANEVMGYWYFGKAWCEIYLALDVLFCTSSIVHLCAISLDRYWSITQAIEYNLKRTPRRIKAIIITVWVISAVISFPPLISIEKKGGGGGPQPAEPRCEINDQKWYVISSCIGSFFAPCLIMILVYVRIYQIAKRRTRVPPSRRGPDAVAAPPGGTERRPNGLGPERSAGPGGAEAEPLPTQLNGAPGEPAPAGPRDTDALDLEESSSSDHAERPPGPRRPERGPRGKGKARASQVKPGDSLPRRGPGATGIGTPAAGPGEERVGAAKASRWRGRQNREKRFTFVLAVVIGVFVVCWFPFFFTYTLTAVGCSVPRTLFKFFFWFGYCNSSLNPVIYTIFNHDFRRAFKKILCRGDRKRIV
# [3] = target: T2, α-2B (Homo sapiens, UniProt P18089); conditions: cited from earlier work
# T2 sequence (P18089 1-450): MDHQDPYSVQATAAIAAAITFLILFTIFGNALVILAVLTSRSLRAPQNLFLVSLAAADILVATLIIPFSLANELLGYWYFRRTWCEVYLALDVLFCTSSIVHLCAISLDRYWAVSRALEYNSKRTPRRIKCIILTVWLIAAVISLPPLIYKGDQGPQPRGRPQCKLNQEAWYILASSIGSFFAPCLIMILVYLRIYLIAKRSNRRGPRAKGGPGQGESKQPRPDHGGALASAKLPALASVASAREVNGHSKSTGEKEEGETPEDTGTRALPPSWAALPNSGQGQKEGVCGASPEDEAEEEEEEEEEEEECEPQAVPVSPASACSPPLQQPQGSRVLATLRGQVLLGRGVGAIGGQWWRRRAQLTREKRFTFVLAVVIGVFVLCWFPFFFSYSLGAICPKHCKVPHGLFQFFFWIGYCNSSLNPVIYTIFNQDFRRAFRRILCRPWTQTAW
# [4] = target: T3, α-2C (Homo sapiens, UniProt P18825); conditions: cited from earlier work
# T3 sequence (P18825 1-462): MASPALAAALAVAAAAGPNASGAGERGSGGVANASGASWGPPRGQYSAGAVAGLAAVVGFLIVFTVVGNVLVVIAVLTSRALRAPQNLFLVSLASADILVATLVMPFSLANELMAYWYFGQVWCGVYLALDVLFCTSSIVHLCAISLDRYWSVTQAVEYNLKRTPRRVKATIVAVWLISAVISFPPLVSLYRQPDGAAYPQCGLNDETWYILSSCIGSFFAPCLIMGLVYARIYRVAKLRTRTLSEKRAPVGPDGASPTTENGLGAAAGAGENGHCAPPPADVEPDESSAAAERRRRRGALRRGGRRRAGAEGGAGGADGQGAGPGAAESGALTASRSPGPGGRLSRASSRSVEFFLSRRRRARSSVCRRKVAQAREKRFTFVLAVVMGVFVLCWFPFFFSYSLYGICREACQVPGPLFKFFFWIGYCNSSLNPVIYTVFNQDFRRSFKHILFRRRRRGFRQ
# [5] = test system: mouse tail arteries; assay: Agonist-induced vasoconstriction in isolated mouse tail artery, with influence of cold; assay type: cell-based; conditions: for constriction of proximal and distal segments of mouse tail arteries: 10^−9 to 3×10^−7M, 37° C.; for influence of cold on the constrictor response to the agonist: distal segments, 28° C. versus 37° C.
# Description: Small arteries were allowed to equilibrate for 30-40 min at a transmural pressure (PTM) of 60 mmHg before addition of α1 and α2-AR agonists and antagonists. […] Following completion of the concentration-effect curve, the influence of the agonists was terminated by repeatedly exchanging the buffer solution and allowing the artery to return to its stable baseline level.
# Vasomotor responses were expressed as a percentage change in internal diameter (ID) prior to administrating the agent. Because of the phasic behavior of the vasomotion in distal. tail arteries, the signal was electronically averaged (BIOPAC software, smoothing factor of 2000) in order to obtain diameter measurements. Functional data is expressed as means±SEM for n number of experiments, where n equals the number of animals from which blood vessels were studied. Antagonist dissociation constants (KD) were determined either from Arunlakshana and Schild plots or according to the formula: KD=[Ant]/(CR-1), where [Ant] is the concentration of antagonist, and CR the ratio of agonist-concentrations producing equal responses in the presence and absence of the antagonist. […] Statistical evaluation of the data was performed by Student's t-test for either paired or unpaired observations. […]
# [6] = test system: control and SSc arterioles; assay: Agonist-induced vasoconstriction in human dermal arterioles from control and SSc subjects; assay type: cell-based; conditions: for Emax: Homo sapiens; for constriction: 1 μM of the agonist
# From the text: Skin biopsies (6 mm punch) were obtained from the same location on the medial aspect on the upper arm of patients and control subjects. Eleven patients with diffuse cutaneous SSc were studied: nine female and two male. Their average age was 49 years old (range 33 to 69) and they had SSc for an average of 4 years (range 1 to 9 years from first physician diagnosis of SSc). SSc patients were recruited from the Johns Hopkins and University of Maryland Scleroderma Center. All patients met the American College of Rheumatology criteria for a diagnosis of SSc. Biopsy of the skin was performed in the upper arm in an area considered to have normal skin thickness determined by clinical palpation (clinically-uninvolved skin). Patients with overlap syndromes (e.g. lupus) were excluded. Patient medications varied between individuals: anti-inflammatory /immunosuppressant, 4 patients on prednisone, 1 on methotrexate, 1 on cyclophosphamide, and 1 on D-penicillamine; gastrointestinal, 5 on omeprazole, 3 on cisapride, 2 on ranitidine, 1 on lansoprazole; angiotensin converting enzyme inhibitors, 3 on enalapril, 1 on lisinopril; angiotensin receptor antagonists, 1 on losartin, 1 on valsartin; calcium antagonists, 2 on nifedipine, 1 on verapamil, 1 on amlodipine, 1 on diltiazem; α1-adrenergic receptor antagonists, 1 on terazosin. Vasoconstrictor responses to the α1-adrenergic receptor (α1-AR) agonist, phenylephrine, were not included for the patient receiving terazosin. Eight normal subjects were analyzed: six female and two males with an average age of 50 years old (range 38 to 62). All patients and volunteers gave informed consent and the study was approved by the Johns Hopkins University human subjects IRB committee.
# Arterioles were dissected from the deep dermal plexus of the biopsies and any side branches tied. […] The arterioles were cannulated with glass micropipettes and placed in a microvessel chamber as previously describe. The arterioles were maintained in no-flow state at a constant transmural pressure (PTM)of 40 mmHg. The chamber was superfused with buffer solution (37° C., pH 7.4, gassed with 16% O2-5% CO2-balance N2) and placed on stage of an inverted microscope for continuous monitoring of internal diameter using a video camera and video dimension analyzer.
# Vasoconstriction was assessed in response to: i) KCl (15 to 60 mM), ii) the selective α1-AR agonist, phenylephrine (0.01 to 1 μM) (SIGMA, St Louis, Mo.), or iii) the selective α2-AR agonist, UK 14,304 (1 to 100 nM) (brimonidine, 5-bromo-N-(4,5-dihydro-1H-imidazol-2-yl)-6-quinoxalinamine, RBI, Natick, Mass.). Responses to UK 14,304 were also evaluated following denudation of the endothelium, achieved by carefully placing a wire (70μdiameter) through the vessel lumen. Endothelium-removal was confirmed by histology and by loss of response to the endothelial stimuli acetylcholine or bradykinin.
# Responses were expressed as a percentage change in baseline diameter. Data is expressed as means±SEM for n number of experiments, where n equals the number of subjects from which blood vessels were studied. Concentration-effect curves were analyzed by comparing: i) maximal responses (vasoconstriction or dilatation), and ii) the area under the curve (AUC). Statistical evaluation of the data was performed using paired or unpaired t-tests. Responses were considered to be statistically different when P was less than 0.05.
# [7] = 28° C. (cold), read-out: KD Mouse Tail Artery 28° C.
# [8] = 37° C. (warm), read-out: KD Mouse Tail Artery 37° C.
"Kd [1, 7]","Kd [1, 8]",−log KD ([1]; 28° C. (cold)),"−log KD ([1]; 37° C., Arunlakshana and Schild plot)",Structure (SMILES),"expected shift in concentration-effect curves generated by α2B-AR stimulation ([1]; based on the Table 1 KD, antagonist at 50 nM)","effect on vasoconstrictor response to UK 14,304 [1]","effect on vasoconstriction to the α2-AR agonist UK 14,304 [1]",Kd [2],Kd [3],Kd [4],"effect on cold-induced amplification of the α2-AR response ([1]; 28° C. versus 37° C., UK 14,304)",constriction of proximal and distal segments of mouse tail arteries [5],influence of cold on the constrictor response to the agonist [5],"Emax ([6]; SSc arterioles with endothelium, 1-100 nM, read-out: maximal response to the agonist (constriction))","Emax ([6]; control arterioles with endothelium, 1-100 nM, read-out: maximal response to the agonist (constriction))","Emax ([6]; endothelium-denuded SSc arterioles, read-out: maximal response (constriction))","Emax ([6]; endothelium-denuded control arterioles, read-out: maximal response (constriction))",constriction ([6]; SSc arterioles),constriction ([6]; control arterioles)
> 0.05 µM,> 0.05 µM,,,COc1ccccc1N1CCN(CCN2C(=O)c3ccccc3C(C)(C)C2=O)CC1 [ARC 239],~10 fold,not inhibited,not inhibited,0.256 µM,0.0046 µM,0.051 µM,,,,,,,,,
0.029 µM,0.02 µM,7.54 ± 0.10,7.69±0.13,CC1c2ccccc2CN1CC1=NCCN1 (stereo not shown) [BRL 44408],,reduced,inhibited,0.013 µM,0.174 µM,0.187 µM,did not reduce,,,,,,,,
,,,,"Brc1c(NC2=NCCN2)ccc2nccnc12 [UK 14,304, 5-bromo-N-(4,5-dihydro-1H-imidazol-2-yl)-6-quinoxalinamine]",,,,,,,,caused concentration-dependent constriction,dramatically and reversibly increased,67 ± 4%,25 ± 5%,67 ± 10%,25 ± 7%,,
,,,,CNC[C@H](O)c1cccc(O)c1 [phenylephrine],,,,,,,,caused concentration-dependent constriction,did not affect,,,,,45±7%,45±8%

# Source: patent US6444681B1, “Methods and compositions for treating Raynaud's Phenomenon and scleroderma” (The Ohio State University Research Foundation, priority 2000, dated 2002)
